PMC7334220, “Diamond Blackfan anemia is mediated by hyperactive Nemo-like kinase” (Nature Communications, 2020)
pIC50: −log10 of the molar value. “And” between values parts separate entries of the source, which are not always exact repeats. Equal values may be shown once.

Assays:
[1] = test system: RPS19-insufficient cord blood CD34+ HSPCs; test: In vitro differentiation of cord blood CD34+ HSPCs transduced with shRNA against RPS19 (cell count and flow cytometry); for erythroid expansion in RPS19-insufficiency, % of control: untreated 8.7%; type: cell-based, human; conditions: for increase of erythropoiesis in RPS19-insufficiency compared with control treated cells: CD235+ erythroid cells after 15 days, inhibitors at working concentrations for TGFβ inhibition every three days, Fig. 1d
Protocol: Cells were plated at 2000 cell per well in 96-well plates in the presence or absence of doxycycline. Relative amounts of live cells were quantified by luciferase-based Cell titer-Glo® assay. b TGFβR1 inhibitors were assessed for their ability to increase cell expansion in RPS19-insuffiency. As a control, vehicle alone (no doxycycline) is represented at the far left while all other samples were treated with doxycycline to induce RPS19-insufficiency. c Kit^+ erythroid progenitors were grown in the absence of doxycycline and in the presence of 10 µM of indicated compound. In addition, cells were treated with 5 ng/ml of TGFβ1 for 5 days before being subjected to Cell titer-Glo® assay. d Differentiating cord blood CD34^+ progenitors were transduced with shRNA against luciferase or RPS19 and treated with inhibitors at working concentrations for TGFβ inhibition every three days. […] Cells were counted and CD235^+ erythroid (i and iii) and CD11b^+ myeloid cell (ii and iv) percentages were determined by flow cytometry. The number of erythroid or myeloid cells is expressed as a percentage of the number of that lineage with no cytokine or drug treatment. Bars represent means ± SD with individual data points overlaid. n = 3 independent experiments performed in triplicate. Statistics: two-tailed Student’s t test, significant *p < 0.05. Also see Supplementary Fig. 1. Erythroid expansion is depicted in red while myeloid is in purple. Source data are provided as a Source Data file.
(§1) Cells were counted and assessed for cell surface expression of CD235. b Lin-Kit^+ hematopoietic progenitors were obtained from three mouse embryos expressing tetracycline-inducible shRNA against RPS19 at day E14.5 or three untreated mice, and thee mature RPL11^+/+ or three mature RPL11^+/lox mice treated with tamoxifen for eight weeks. […] Values were expressed as a percentage relative to untreated controls. c, d Intracellular phosphorylation of NLK at Thr298 was determined by capillary electrophoresis using the Peggy Sue™ Automated Western blotting platform. After lysis, 4 µg of protein from the CD235^+ population was probed against pThr298-NLK and normalized to GAPDH. […] After counting the total cell population, the ratio of CD235^+ erythroblasts was determined by flow cytometry and number of CD235^+ erythroblasts calculated. This was expressed as a percentage of the average number of erythroid cells present in untreated healthy controls. f NLK phosphorylation was assessed by capillary electrophoresis as above. Bars represent means ± SD with individual data points overlaid. […] Statistics: two-tailed Student’s t test, significant *p < 0.05. Also see Supplementary Fig. 8. Source data are provided as a Source Data file.
Primary human CD34^+ hematopoietic stem and progenitor cells were purified from cord or peripheral blood (New York Blood Center) or from human fetal liver tissue (Advanced Bioscience Resources and University of California, Los Angeles Center for AIDS Research) by using magnetic-activated cell sorting (Miltenyi Biotec) and were cryopreserved. Upon thawing, cells were cultured in x-Vivo15 media (Lonza) containing 10% fetal bovine serum, fms-related tyrosine kinase 3 (50 ng/ml), […] (50 ng/ml), interleukin-3 (IL-3; 20 ng/ml), interleukin-6 (IL-6; 20 ng/ml), and stem cell factor (50 ng/ml). When applied, TGFβ1 was added at 5 ng/ml. Kp53A1 cells were obtained from Javier Leon and cultured in DMEM supplemented with 10% fetal bovine serum at 37 or 32 °C.

[2] = test system: RPL11-insufficient Lin-Kit+ HSPCs; test: Erythroid differentiation of Lin-Kit+ HSPCs from tamoxifen-treated RPL11+/lox mice; type: cell-based, mouse; conditions: SD208; 8 days; three RPL11+/lox mice; without SD208 31.2, 26.4, 18.6%; Fig. 8b
Protocol: as §1, with “Thr298” left out, “SueTM” for “Sue™”, “platform.” for “platform. After lysis, 4 µg of protein from the CD235^+ population was probed against pThr298-NLK and normalized to GAPDH.”, “Student's” for “Student’s”, “file. Three mature RPL11^+/lox mice were treated with tamoxifen for eight weeks to induce heterozygous deletion of RPL11. As controls, three different RPL11^+/+ littermates of the same mouse strain were treated with tamoxifen.” for “file.”

[3] = test system: p38; test: Reported p38 inhibition (literature / PubChem); type: biochemical; conditions: 850nM vs 440nM; rebuttal letter
From the text: But as p38 can phosphorylate NLK, Myb and Raptor in vitro, we performed a series of experiments that indicate NLK-associated p38 is not contributing to substrate phosphorylation. We determined the IC50 values of a panel of eight p38 inhibitors against p38 and NLK in our in vitro kinase assays. For comparison, reported IC50 values from bioassay results submitted to the National Center for Biotechnology Information PubChem Database were tabulated.

[4] = test system: p38; conditions: reported, no reference given; read-out: reported IC50 against p38; cited from earlier work

Compound	erythroid expansion (CD235) in RPS19-insufficient HSPCs ([1]; 12 days, recommended concentrations, rebuttal Experiment 12)	increase of erythropoiesis in RPS19-insufficiency compared with control treated cells [1] [fold]	improvement of erythropoiesis (comparison of SD208 with p38 inhibitors) ([1]; CD235+, 12 days, recommended concentrations, Supplementary Fig. 2b)	activity at 5 µM ([1]; Homo sapiens, 360 h, read-out: erythroid expansion in RPS19-insufficiency, % of control) [%]	erythroid expansion, % of vehicle treated control cells ([1]; RPS19-insufficient cells, 5 µM, with or without TGFβ, Fig. 1e.iii) [%]	RPS19-insufficient CD235+ erythroblast expansion, % of ribosome-competent controls ([1]; SD208 alone every three days, 15 days, untreated […], Fig. 2d.i) [%]	RPS19-insufficient CD235+ erythroblast expansion, % of ribosome-competent controls, combined with siRNA against NLK ([1]; SD208 plus siNLK, 15 days, untreated […], Fig. 2d.i) [%]	effect on differentiation of non-erythroid hematopoietic lineages ([1]; control or ribosome-insufficient cells)	erythropoiesis, % of controls [2]	reported p38 IC50 compared to observed NLK IC50 [3] [fold]	pIC50 [4]
Fc1ccc(Cl)cc1-c1nc(Nc2ccncc2)c2nccnc2n1 [SD208]	significantly increased	6.3	improved erythropoiesis	38.7	428.6	40.3	43.6	did not impact	57.3% and 56.8% and 50.3%	2	6.07
NC(=O)c1ccc(-c2nc(-c3ccc4c(c3)OCO4)c(-c3ccccn3)[nH]2)cc1 [SB431542]	–	3.2	–	–	–	–	–	–	–	–	5.05
